We go through one substance from patent US20180111991A1, “MODULATORS OF ACTIVIN AND METHODS FOR MODULATING IMMUNE RESPONSES AND T FOLLICULAR HELPER CELLS” (LA JOLLA INSTITUTE FOR ALLERGY AND IMMUNOLOGY, priority 2014, published 2018).

This experiment has as its system human naïve CD4 T cells. Briefly: CXCL13 ELISA on supernatants of differentiated CD4 T cells. It is filed as cell-based. Conditions: plate bound anti-CD3 and ICOS-L, 5 days. On the procedure:
Unless differently specified, naïve CD4^+ T cells were enriched from PBMCs by magnetic bead negative selection with the Naïve CD4^+ T Cell Isolation Kit (Stem Cell Technologies). Purity (CD4^+CD45RA^+) was 90% or higher. Cells (7.5×10^4 cells/well) were activated by Dynabeads Human T-Activator CD3/CD28 (2 μl/well, Life Technologies) and cultured with recombinant human/mouse/rat activin A (50 ng/ml or 100 ng/ml), recombinant human IL-12 (5 ng/ml), recombinant human TGFβ (1 ng/ml), recombinant human IL-23 (10 ng/ml) or recombinant human IL-35 (10 ng/ml) in the presence of and recombinant human IL-7 (4 ng/ml) in AIM-V medium (Life Technologies). All cytokines were from R&D System and Peprotech. The 14 kDa mature human beta A chain of human activin A shares 100% amino acid sequence identity with bovine, feline, mouse, porcine, and rat beta A. Phenotype was quantified after 3 or 5 days, as specified in the main text of Figure legends. […] For experiments quantifying supernatant CXCL13 concentration, cells were activated by plate-bound anti-human CD3 (5 μg/ml, BD) and ICOS-L (5 μg/ml, recombinant human B7-H2, R&D). CXCL13 concentrations were determined via human CXCL13 DuoSet ELISA (R&D) on supernatants harvested after 5 days of in vitro culture. […]

With “activin A: commercial recombinant cytokine, homodimer of the INHBA gene product (inhibin beta A)”, the “CXCL13 expression / secretion” value is listed as “selectively induces CXCL13 expression”.
